The source of these data is patent US4923963A, “Bradykinin antagonist peptides” (Nova Technology Limited Partnership, priority 1987, dated 1990).

Read-outs that look alike come from different tables or passages of the source. Square brackets hold non-standard residues; d marks the D form. Ends that are not written are not given here. Peptide text beside a SMILES is read from it. Hyp = O=C(O)[C@@H]1C[C@@H](O)CN1; 2Thi = N[C@@H](Cc1cccs1)C(=O)O

For one series, the system named is isolated rat uterus. In kind it is cell-based. The method, boiled down:
(§1)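 Antagonism of bradykinin-induced contraction in isolated rat uterus (natural or induced estrus) and guinea pig ileum. Antagonist preincubated 30 s before a double-ED50 bradykinin dose, with the dose raised until the response fell to that of a single ED50. pA2 is the negative log molar antagonist concentration achieving this (Schild method).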

For series [1], the system named is isolated guinea pig ileum. In kind it is cell-based. An outline of the steps:
as §1

In the next series the test system is rat blood pressure. In words: effects on blood pressure in the anesthetized rat (RBP), intraaortic and intravenous bolus. To be noted: for RBP-IV: agonist potency as percent of BK potency: intravenous bolus; for % DESTR (metabolic breakdown of BK-like agonists in RBP assay): relative to BK = 100%. In kind it is in vivo. As for the experimental part:
The in vivo effects of bradykinin antagonists on blood pressure in the anesthetized rat are determined according to the assay described by Roblero, Ryan and Stewart (Res. Commun. Pathol. Pharmacol. 6:207, 1973). The antagonists also produce inhibition of the bradykinin response when injected as a bolus admixture of bradykinin plus antagonist by either the ia or iv route of administration.

The conditions of series [2]: in vivo; cited from earlier work.
In another series the test system is pulmonary circulation. The note with it: anesthetized rat; cited from earlier work.
[3] abbreviates: rat blood pressure, intraaortic bolus.

As for `CC[C@H](C)[C@H](NC(=O)[C@H](CCCNC(=N)N)NC(=O)[C@H](Cc1ccccc1)NC(=O)[C@@H]1CCCN1C(=O)[C@H](CO)NC(=O)[C@H](Cc1ccccc1)NC(=O)CNC(=O)[C@@H]1CCCN1C(=O)[C@@H]1CCCN1C(=O)[C@H](CCCNC(=N)N)NC(=O)[C@H](CCCCN)NC(=O)[C@@H](N)CCCCN)C(=O)N[C@@H](Cc1ccc(O)cc1)C(=O)O` [Example 61, Lys-Lys-Arg-Pro-Pro-Gly-Phe-Ser-Pro-Phe-Arg-Ile-Tyr], the “pA2 /RUT: agonist potency as percent of BK potency” value (from here on “pA2 /RUT … as percent of BK potency”) in the series on isolated rat uterus (isolated rat uterus) amounted to 18%. In series [1] (isolated guinea pig ileum), the “pA2 /GPI: agonist potency as percent of BK potency” value was determined as 21%. In addition, the “RBP-IA: agonist potency as percent of BK potency” value (from here on “RBP-IA … as percent of BK potency”) in the series on rat blood pressure (setting [3]) was 9%. The “RBP-IV: agonist potency as percent of BK potency” value in the series on rat blood pressure (rat blood pressure) amounted to 497%. Besides, in the series on rat blood pressure, the “% DESTR (metabolic breakdown of BK-like agonists in RBP assay)” value is 0%.
As to `CC[C@H](C)[C@H](NC(=O)[C@H](CCCNC(=N)N)NC(=O)[C@H](Cc1cccs1)NC(=O)[C@@H](Cc1ccccc1)NC(=O)[C@H](CO)NC(=O)[C@H](Cc1cccs1)NC(=O)CNC(=O)[C@@H]1C[C@@H](O)CN1C(=O)[C@@H]1CCCN1C(=O)[C@H](CCCNC(=N)N)NC(=O)[C@H](N)CCCNC(=N)N)C(=O)N[C@@H](Cc1ccc(O)cc1)C(=O)O` [Example 68, DArg-Arg-Pro-Hyp-Gly-Thi-Ser-DPhe-Thi-Arg-Ile-Tyr] (H-[dR]RP[Hyp]G[2Thi]S[dF][2Thi]RIY-OH), the “pA2 /RUT … as percent of BK potency” value in the series with isolated rat uterus turned out to be 0.02%. For the same molecule, in series [1] (isolated guinea pig ileum, number of tissues in parentheses), the “pA2 /GPI (antagonist potency)” value worked out at 6.7. The “RBP-IA … as percent of BK potency” value with rat blood pressure (rat, in vivo) amounted to 7%.
In the case of “RPPGFSPFR [bradykinin, Arg-Pro-Pro-Gly-Phe-Ser-Pro-Phe-Arg]”, the figures for the “pD2 value (negative log of dose causing half maximal contraction)” value (in the series with isolated rat uterus (rat uterus); in series [1] (guinea pig ileum)) were 7.9 and 7.4, respectively. Also, the “half life in the systemic circulation” value in series [2] is on record as “less than 30 seconds”. Besides, in the series with pulmonary circulation, the “destruction on a single passage through the pulmonary circulation” value is 98-99%.
For “RPPGFSPFRIY [Example 59, Arg-Pro-Pro-Gly-Phe-Ser-Pro-Phe-Arg-Ile-Tyr]”, the “pA2 /RUT … as percent of BK potency” value in the series with isolated rat uterus (isolated rat uterus) came out at 26%. For the same molecule, the “pA2 /GPI: agonist potency as percent of BK potency” value in series [1] (isolated guinea pig ileum) was determined as 21%. The “RBP-IA … as percent of BK potency” value in the series with rat blood pressure (setting [3]) is on record as 6%. The “RBP-IV: agonist potency as percent of BK potency” value in the series on rat blood pressure (rat blood pressure) stood at 103%. Also, the “% DESTR (metabolic breakdown of BK-like agonists in RBP assay)” value in the series on rat blood pressure worked out at 61%.
Taken in the same sequence, the figures for [dK]KRPPGFSPRIY [Example 62] were 5%, 1%, 5%, 165% and 0%.
